In ChEMBL document CHEMBL1201862, “PubChem BioAssay data set” (2004):
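Each compound was tested at five concentrations against cells in 96-well plates for 48 hours. The concentration for 50% growth inhibition is given as GI50.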 Active and inactive are the calls of the source. Cut-off read from the data, not from the text of the source: active = GI50 up to about 1.1 µM and inactive = higher.

Columns and labels:
Test in all cases: DTP human tumour cell line panel, 48 h
[1] = system: M19-MEL
[2] = system: DMS-114
[3] = system: XF498
[4] = system: LXFL 529
[5] = system: SNB-78
[6] = system: HOP-18
[7] = system: Hs-578T
[8] = system: DMS-273
[9] = system: RXF 631

Measured: GI50

CC1(C)CCCC2(C)C3C(O)CC2(C)C(O)C31 (centres undefined)
inactive: [1] > 100 µM | [2] > 100 µM | [3] > 100 µM | [4] > 100 µM | [5] > 100 µM | [6] > 100 µM

CCOC(=O)Nc1sc2c(c1C#N)CCCC2
inactive: [7] 78.7 µM

CC(C)(C)C1=Nc2c(Br)cc(C(C)(C)C)cc2C(C(F)(F)F)(C(F)(F)F)O1
inactive: [8] 46 µM | [1] 72.6 µM | [2] 31.6 µM | [3] 19 µM | [4] 46.7 µM | [5] > 100 µM

O=C1C(=Cc2c(O)cc(O)cc2O)C(=O)c2ccccc21
inactive: [8] > 100 µM | [1] > 38.5 µM | [2] > 100 µM | [4] > 43.5 µM | [5] 23.8 µM | [6] 27.4 µM

N#C/C(=C1\OC(=N)C(c2ccccc2)C1=O)c1ccccc1 (centres undefined)
inactive: [8] 49.9 µM | [1] 24 µM | [2] 29.5 µM | [3] 16.9 µM | [4] 17.8 µM | [5] > 77.1 µM | [6] 28.6 µM

COc1ccc(NC(=O)CC/C(CC(=O)C(C)(C)C)=N\NC(=O)C(N)=O)cc1
inactive: [1] > 100 µM | [2] > 100 µM | [4] 79.4 µM

N#C/C(=C/c1ccc2c(c1)OCO2)C(=O)c1ccccc1
inactive: [1] > 100 µM | [3] > 100 µM | [4] > 100 µM | [5] > 100 µM | [6] > 100 µM

COC(=O)C1CCCC2(C1)OCCO2 (centres undefined)
inactive: [8] > 100 µM | [1] > 100 µM | [2] > 100 µM | [9] > 100 µM | [4] > 100 µM | [5] > 100 µM | [6] > 100 µM

Cc1ccc(S(=O)(=O)N/N=C(/CC(=O)c2c(C)[n+]([O-])c3ccccc3[n+]2[O-])C(=O)Nc2ccc(C)c(C)c2)cc1
inactive: [8] 44.8 µM | [1] 17.9 µM | [2] 19.6 µM | [9] > 100 µM | [4] > 100 µM | [5] > 100 µM | [6] > 100 µM

CC1C[C@]2(C)C(NCCN)=Nc3ccccc3[C@@H]2N(C)c2ccccc21 (some centres undefined)
inactive: [7] 18.3 µM

Cn1cc(C(=O)c2ccccc2)c2ccccc2c1=O
inactive: [8] > 100 µM | [1] > 100 µM | [2] > 100 µM | [3] > 100 µM | [4] 89.3 µM

O=C1C=CC(=O)c2ccc(=O)ccc21
inactive: [8] 25.5 µM | [1] 7.55 µM | [2] 9.16 µM | [7] 36.6 µM | [9] 14.4 µM | [4] 2.54 µM | [5] 25.9 µM | [6] 19.4 µM

O=C1c2ccccc2C2(O)N(c3ccccc3)C(=S)N(c3ccccc3)C12O (centres undefined)
inactive: [8] > 100 µM | [1] > 100 µM | [2] > 100 µM | [9] > 100 µM | [4] > 100 µM | [5] > 100 µM | [6] > 100 µM

Cc1cc2c(=O)c(C)n[nH]c2c(C#N)c1C
inactive: [8] > 100 µM | [1] > 100 µM | [3] > 100 µM | [9] > 100 µM | [4] > 100 µM | [6] > 100 µM

CCOC(=O)C1([Se]c2ccccc2)CCCC1=O (centres undefined)
inactive: [8] 14.4 µM | [1] 19.7 µM | [2] 3.83 µM | [3] 16.1 µM | [9] 66.5 µM | [4] 14.8 µM | [5] 24 µM | [6] 20.1 µM

COC1CC(O)C(OC(=O)c2ccccc2)C(C)O1 (centres undefined)
inactive: [8] > 100 µM | [1] > 100 µM | [3] > 100 µM | [9] > 100 µM | [5] > 100 µM | [6] > 100 µM

COc1ccc(-c2cc(=O)c3cc(C)c(C)c(C(=O)O)c3o2)cc1
inactive: [8] > 100 µM | [1] > 100 µM | [2] 15.3 µM | [3] > 100 µM | [9] > 100 µM | [4] > 100 µM | [5] > 100 µM

CC1(c2cccc(C3CC4(CCC3=O)OCCCCO4)c2)OCCO1 (centres undefined)
inactive: [8] > 100 µM | [1] > 100 µM | [2] 7.96 µM | [4] > 100 µM | [5] > 100 µM | [6] > 100 µM

CN1CCc2cc3c4cc2C1Cc1ccc(cc1)Oc1cc(ccc1O)CC1c2c(cc(O)c(c2O4)O3)CCN1C (centres undefined)
inactive: [8] 1.75 µM | [1] 1.78 µM | [2] 2.05 µM | [3] 1.69 µM | [9] 1.94 µM | [4] 2.53 µM | [5] 5.66 µM | [6] 3.52 µM

CCc1c(OC(C)=O)c2c(NC3OCC(OC(C)=O)C(OC(C)=O)C3OC(C)=O)nc(SC)nc2oc1=O (centres undefined)
inactive: [1] > 100 µM | [3] > 100 µM | [9] > 100 µM | [4] > 100 µM | [5] > 100 µM | [6] > 100 µM

COc1ccc(OC)c2cc(C3(C)SCCCS3)ccc12
inactive: [8] 79.6 µM | [1] > 100 µM | [2] 92.5 µM | [3] 61.7 µM | [4] > 100 µM | [5] 45.9 µM | [6] > 100 µM

O=C1N[C@H](C(=O)O)[C@@H](c2ccc(OCc3ccccc3)cc2)O1
inactive: [7] 27.5 µM

CCOC(=O)c1c(SC(=O)c2ccc(C(C)(C)C)cc2)n(-c2ccccc2)c(=S)n(-c2ccccc2)c1=O
inactive: [7] > 100 µM

O=C1CC(c2n[nH]c3ccccc23)C(=O)N1c1ccccc1 (centres undefined)
inactive: [8] > 100 µM | [1] > 100 µM | [2] > 100 µM | [7] > 100 µM | [3] > 100 µM | [9] > 100 µM | [4] > 95.9 µM | [5] > 100 µM | [6] > 100 µM

O=C(NC1CC1)c1c(O)[nH]c(=S)[nH]c1=O
inactive: [1] > 100 µM | [2] > 100 µM | [9] > 100 µM | [4] > 100 µM | [5] > 100 µM | [6] > 100 µM

C=C1C(=O)C23CC1CCC2C12CO[C@@H]4OCC(C)(CC[C@@H]1OC3=O)C42 (some centres undefined)
inactive: [8] 6.56 µM | [1] 6.53 µM | [2] 1.9 µM | [3] 1.92 µM | [9] 12.1 µM | [4] 2.78 µM | [5] 2.3 µM | [6] 6.41 µM

COc1ncn(C2C=C(CO)C(O)C2O)c(=O)n1 (centres undefined)
inactive: [8] > 100 µM | [2] > 100 µM | [4] > 100 µM | [5] > 100 µM | [6] > 100 µM

CCN(CC)CCCNC(=O)c1ccc([N+](=O)[O-])cc1O
inactive: [8] > 100 µM | [2] > 100 µM | [9] > 100 µM | [4] > 100 µM | [5] > 100 µM

O=C(N/N=C/c1cccc(F)c1)c1ccncc1
inactive: [8] > 100 µM | [2] > 100 µM | [3] > 100 µM | [4] > 100 µM | [6] > 100 µM

Nc1ccc([As](=O)(O)O)cc1 [ARSANILIC ACID]
inactive: [7] > 100 µM
